The values below are quoted from earlier work in patent US5206382A, “Indole derivatives, pharmaceutical compositions and methods of treating neurological and psychiatric disorders” (Fidia Georgetown Institute for the Neurosciences, priority 1991, dated 1993).

The test system of one data set is rats. To be noted: dose-related; reduced by both PK-11195 and Flumazenil; cited from earlier work.
In data set [1] the test system is MBR. To be noted: in words; cited from earlier work.
The next data set has as its system GABAA receptor. To be noted: in words; cited from earlier work.
In data set [2] the test system is MBR. Particulars: in words; cited from earlier work. This is another data set of the same source.

`CCCN(CCC)C(=O)Cc1c(-c2ccc(Cl)cc2)nc2ccc(Cl)cn12` [Alpidem]: the conflict response entry with rats was “anticonflict (anxiolytic) action”. The “cholesterol influx into mitochondria and formation of pregnenolone” value in the data set on MBR [1] is “facilitates cholesterol influx into mitochondria and the formation of pregnenolone”. In addition, in the data set with GABAA receptor, the “binding to the GABAA receptor / BZD recognition sites on GABAA receptors” value is listed as “high affinity”. Besides, the “affinity for the MBR” value with MBR [2] is “high affinity”.
